According to patent publication US5002948A, “3-[4-[4-substituted-1-piperazinyl]-1-butyl]-1H-2,3-dihydroindoles” (H. Lundbeck A/S, priority 1988, dated 1991):

Columns and labels:
[1] = biological target: T1, serotonin 5-HT1A receptors (Rattus norvegicus, UniProt P19327); assay: Inhibition of 3H-8-OHDPAT binding to serotonin 5-HT1A receptors in rat brain in vitro; settings: 3H-8-OHDPAT 1 nM, rat brain membranes minus cerebellum, 37° C., 15 min; read-out: IC50 (3H 8-OH DPAT binding)
T1 construct: membranes from rat brain minus cerebellum; from tissue; host or cells: brain minus cerebellum of male Wistar (Mol:Wist) rats, membranes
T1 sequence (P19327 1-422): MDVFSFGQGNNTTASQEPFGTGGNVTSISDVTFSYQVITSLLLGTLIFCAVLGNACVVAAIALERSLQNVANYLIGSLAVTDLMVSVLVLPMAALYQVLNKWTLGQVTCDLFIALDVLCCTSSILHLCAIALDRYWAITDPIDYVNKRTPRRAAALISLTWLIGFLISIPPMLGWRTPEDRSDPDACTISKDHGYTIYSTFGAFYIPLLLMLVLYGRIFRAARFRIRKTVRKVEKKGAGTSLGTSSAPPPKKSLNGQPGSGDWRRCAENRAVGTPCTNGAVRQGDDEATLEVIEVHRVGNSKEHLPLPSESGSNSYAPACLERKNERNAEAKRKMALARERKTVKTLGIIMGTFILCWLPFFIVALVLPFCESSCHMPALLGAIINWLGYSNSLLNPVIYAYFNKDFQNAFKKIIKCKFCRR
Protocol: INHIBITION OF ^3 H-8-OHDPAT BINDING TO SEROTONIN 5-HT1A RECEPTORS IN A RAT BRAIN IN VITRO
By this method the inhibition by drugs of the binding of ^3 H-8-OHDPAT (1 nM) to serotonin 5-HT1A receptors in membranes from rat brain minus cerebellum is determined in vitro.
Male Wistar (Mol:Wist) rats (125-250 g) are sacrificed and the brain is dissected and weighed. The brain tissue minus cerebellum is homogenized (Ultra Turrax, 20 sec) in 10 ml of ice cold 50 mM Tris buffer pH 8.0 (at 25° C.) containing 120 mM NaCl, 4 mM CaCl2 and 4 mM MgCl2. The homogenate is centrifuged at 20,000 g for 10 min at 4° C. The pellet is homogenized in 10 ml of buffer and incubated at 37° C. for 10 min. The homogenate is centrifuged as above and the pellet is homogenized in 100 vol (w/v) ice cold buffer containing 10 μ M of parglyine.
Incubation tubes kept on ice in triplicate receive 100 μl of drug solution in water (or water for total binding) and 1000 μ l of tissue suspension (final tissue content corresponds to 10 mg original tissue). The binding experiment is initiated by addition of 100 μ l of ^3 H-8-OHDPAT (final concentration 1 nM) and by placing the tubes in a 37° C. water bath. After incubation for 15 min the samples are filtered under vacuum (0-50 mBar) through Whatman GF/F filters ([…]). The tubes are rinsed with 5 ml ice cold 0.9% NaCl which are then poured on the filters. Thereafter, the filters are washed with 2×5 ml 0.9% NaCl. The filters are placed in counting vials and 4 ml of appropriate scintillation fluid (e.g. Picofluor™15) are added. After shaking for 1 h and storage 2 h in the dark the content of radioactivity is determined by liquid scintillation counting. Specific binding is obtained by subtracting the nonspecific binding in the presence of 10 μ M of 5-HT.
For determination of the inhibition of binding five concentrations of drugs covering 3 decades are used.
The IC50 -value is determined as the concentration, at which the binding is 50% of the total binding in control samples minus the nonspecific binding in the presence of 10 μM of 5-HT.
^3 H-8-OHDPAT from Amersham International plc. England. Specific activity approximately 200 Ci/mmol).

5-HT1A = biological target: T2, 5-HT1A (Rattus norvegicus, UniProt P19327); assay: Generalization to discriminative stimulus properties induced by 8-OHDPAT in rats (agonism); assay type: in vivo, Male Wistar rats; set-up: from tissue; host or cells: whole living animal, male Wistar rats, s.c. dosing; settings: usually 30 or 45 min before test, substituted for 8-OHDPAT, per cent drug response; for ED50: rat, sc, read-out: ED50, 8-OH DPAT cue agonism
T2 sequence (P19327 1-422): T1 sequence (P19327 1-422)
Description: GENERALIZATION TO DISCRIMINATIVE STIMULUS PROPERTIES INDUCED BY 8-OHDPAT IN RATS.
This test model is used to determine the agonist effects of a test compound on 5-HT1A receptors in vivo. A related method is described by Tricklebank, M. D., J. Neill, E. J. Kidd and J. R. Fozard, Eur. J. Pharmacol. 133, 37-56, 1987; Arnt, J., Pharmacology & Toxicology 64, 165-172, 1989.
The procedure is the same as for the antagonism test mentioned above, except that the test compound is substituted for 8-OHDPAT and injected s.c. usually 30 minutes or 45 minutes respectively before beginning of the test.
The per cent drug response obtained for each dose of test compound is used to calculate ED50 values by log-probit analysis.

In the case of `CCOc1ccccc1N1CCN(CCCCC2CNc3ccccc32)CC1` (stereo not drawn) [Compound 3c, 3-[4-[4-(2-ethoxyphenyl)-1-piperazinyl]-1-butyl]-1H-2,3-dihydroindole], the IC50 [1] is reported as 11 nM and the ED50 (5-HT1A) is reported as greater than 26 µmol/kg.

With `c1ccc2c(c1)NCC2CCCCN1CCN(c2cccc3c2OCCO3)CC1` (stereo not drawn) [Compound 3j, 3-[4-[4-(1,4-benzodioxan-5-yl)-1-piperazinyl]-1-butyl]-1H-2,3-dihydroindole] the IC50 [1] was 3.3 nM and the ED50 (5-HT1A) was greater than 4.4 µmol/kg.

`c1ccc2c(c1)NCC2CCCCN1CCN(c2cccc3c2OCC3)CC1` (stereo not drawn) [Compound 3i, 3-[4-[4-(2,3-dihydro-7-benzofuranyl)-1-piperazinyl]-1-butyl]-1H-2,3-dihydroindole] showed an IC50 [1] of 9.4 nM and an ED50 (5-HT1A) of 2.7 µmol/kg.

`COc1ccccc1N1CCN(CCCCC2CNc3ccccc32)CC1` (single isomer, unassigned; (-)) [Compound 7b, (-)-3-[4-[4-(2-methoxyphenyl)-1-piperazinyl]-1-butyl]-1H-2,3-dihydroindole] was tested, and the IC50 [1] was 8.6 nM and the “ED50, 8-OH DPAT cue agonism” value (5-HT1A; s.c.) was greater than 3.4 µmol/kg.

Work on `COc1ccccc1N1CCN(CCCCC2CNc3ccccc32)CC1` (stereo not drawn) [Compound 3a, 3-[4-[4-(2-methoxyphenyl)-1-piperazinyl]-1-butyl]-1H-2,3-dihydroindole] yielded an IC50 [1] of 14 nM and an ED50 (5-HT1A) greater than 9.2 µmol/kg.

`COc1ccccc1N1CCN(CCCCC2CNc3ccccc32)CC1` (single isomer, unassigned; (+)) [Compound 7a, (+)-3-[4-[4-(2-methoxyphenyl)-1-piperazinyl]-1-butyl]-1H-2,3-dihydroindole] gave an IC50 [1] of 13 nM and an ED50 (5-HT1A) greater than 6.8 µmol/kg.
